A word on the IC50: it is the midpoint of a concentration-inhibition curve. The low end stands for higher potency, the high end for lower potency.

Molecules are shown by their SMILES.

T1 sequence (Q14191 517-1235 L1074F): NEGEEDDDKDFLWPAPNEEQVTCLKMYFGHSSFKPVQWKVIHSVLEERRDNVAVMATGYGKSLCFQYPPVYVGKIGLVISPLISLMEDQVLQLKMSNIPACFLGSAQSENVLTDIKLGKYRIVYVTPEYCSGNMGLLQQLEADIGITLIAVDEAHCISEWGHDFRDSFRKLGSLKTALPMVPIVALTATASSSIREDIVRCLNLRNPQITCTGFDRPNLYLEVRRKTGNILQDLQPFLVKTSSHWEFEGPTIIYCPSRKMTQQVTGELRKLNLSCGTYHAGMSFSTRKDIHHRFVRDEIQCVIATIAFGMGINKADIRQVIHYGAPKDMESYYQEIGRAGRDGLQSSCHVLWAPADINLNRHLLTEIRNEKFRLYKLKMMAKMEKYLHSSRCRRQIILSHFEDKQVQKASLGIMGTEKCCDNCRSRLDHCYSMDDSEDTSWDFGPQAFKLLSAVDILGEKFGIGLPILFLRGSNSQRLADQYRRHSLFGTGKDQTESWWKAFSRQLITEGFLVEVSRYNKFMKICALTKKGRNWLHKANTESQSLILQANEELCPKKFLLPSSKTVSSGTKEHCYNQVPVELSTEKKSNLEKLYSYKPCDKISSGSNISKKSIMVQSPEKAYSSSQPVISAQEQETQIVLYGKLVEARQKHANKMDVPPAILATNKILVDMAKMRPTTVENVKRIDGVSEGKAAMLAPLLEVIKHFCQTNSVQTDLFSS

The assay has as its target T1, human Werner helicase (Uniprot Q14191, amino acids 517-1235 with L1074F point mutation), WRN-BV08 (Homo sapiens, UniProt Q14191, L1074F).
T1 construct: Uniprot Q14191, amino acids 517-1235 with L1074F point mutation; TEV cleavable 8xHis tag (C, cleaved yes); made in house; host or cells: Sf9 insect cells (baculovirus, pFastBac)
The experiment in a line: WRN (BV08) ADP-Glo Assay. Type of assay: biochemical. The protocol:
DNA duplex was synthesized at BGI (Shenzhen, China) and was composed of strand 1 with the sequence 5′-[…]-3′ (SEQ ID NO.: 1) and strand 2 with the sequence 5′-[…]-3′ (SEQ ID NO.: 2). DNA strands were annealed by heating to 95 °C for 5 minutes followed by slow cooling to room temperature. […] DMSO (0.1 μl) was added to columns 12, rows A-H and column 24, rows I-P for the maximum signal control.
Where RLU=relative luminescence units, sample=signal in sample well, and MIN and MAX are the respective minimum and maximum signal controls. • Four-parameter IC50 fit equation:
Y=Bottom+(Top−Bottom)/(1+(IC50/X)^Hill Slope)
Where top and bottom are normally allowed to float but may be fixed at 100 or 0 respectively in a 3-parameter fit. Y is the % inhibition and X is the compound concentration.
Molecular Biology and virus production. […] The baculovirus from the expression plasmid WRN-BV08 was generated from transfection and amplification following the manufacturer's instructions.
Sf9 cells grown in SF900II media were infected with 1:200 WRN-BV08 P2 virus and incubated for protein expression for 72 h at 27 °C. The WRN protein was purified using the following protocol. The cell pellets were thawed and resuspended in buffer A (50 mM Tris, pH 7.5, 500 mM NaCl, 1 mM TCEP, 10% Glycerol) supplemented with 0.5% CHAPS, 1 mM [COMPOUND LEFT OUT], 1 μg/ml Leupeptin, 1 μg/ml Pepstatin, and the Pierce Universal Nuclease and cocktail tablet. Cleared lysates were loaded onto a Ni Sepharose™ excel column and washed with buffer A and bound protein was eluted with buffer A supplemented with 300 mM imidazole. The eluted protein was dialyzed against buffer A and digested by His-tagged TEV (1:5 ratio) overnight at 4 °C. […] Untagged WRN protein was eluted from the column with buffer A supplemented with 20 mM imidazole, dialyzed overnight into buffer B (50 mM Tris, pH 7.5, 1 mM TCEP, 10% Glycerol) supplemented with 150 mM NaCl and loaded onto a Heparin column. Proteins were eluted with a step gradient of buffer B supplemented with 150 mM, 200 mM, 300 mM and 500 mM NaCl.
Background: ADP-Glo first removes unused ATP, then detects ADP through luciferase.
Turning to `CCc1c(N2CCN(C(=O)c3cccc4cccnc34)CC2)c(=O)n2nc(C3=CCOCC3)nc2n1CC(=O)Nc1ccc(C(F)(F)F)cc1Cl` [Compound I-19, N-[2-chloro-4-(trifluoromethyl)phenyl]-2-[2-(3,6-dihydro-2H-pyran-4-yl)-5-ethyl-7-oxo-6-[4-(quinoline-8-carbonyl)piperazin-1-yl]-4H,7H-[1,2,4]triazolo[1,5-a]pyrimidin-4-yl]acetamide], the IC50 fell in the range of 0.005 to 0.05 µM.

Take `CCc1c(N2CCN(C(=O)C(C)(C)CO)CC2)c(=O)n2nc(C3=CCOCC3)nc2n1CC(=O)Nc1ccc(C(F)(F)F)cc1Cl` [Compound I-20, N-[2-chloro-4-(trifluoromethyl)phenyl]-2-[2-(3,6-dihydro-2H-pyran-4-yl)-5-ethyl-6-[4-(3-hydroxy-2,2-dimethylpropanoyl)piperazin-1-yl]-7-oxo-4H,7H-[1,2,4]triazolo[1,5-a]pyrimidin-4-yl]acetamide]: the half-maximal inhibitory concentration (IC50) was 0.005 to 0.05 µM.

The compound `CCc1c(N2CCN(C(=O)c3ncnc(C)c3O)CC2)c(=O)n2nc(-c3ccnc(OC)c3)nc2n1CC(=O)Nc1ccc(C(F)(F)F)cc1Cl` [Compound I-21, N-[2-chloro-4-(trifluoromethyl)phenyl]-2-{5-ethyl-6-[4-(5-hydroxy-6-methylpyrimidine-4-carbonyl)piperazin-1-yl]-2-(2-methoxypyridin-4-yl)-7-oxo-4H,7H-[1,2,4]triazolo[1,5-a]pyrimidin-4-yl}acetamide] gave an IC50 of 0.005 to 0.05 µM.

Compound `CCc1c(N2CCN(C(=O)c3ncnc(C)c3O)CC2)c(=O)n2nc(-c3ccc(OC)nc3)nc2n1CC(=O)Nc1ccc(C(F)(F)F)cc1Cl` [Compound I-22, N-[2-chloro-4-(trifluoromethyl)phenyl]-2-{5-ethyl-6-[4-(5-hydroxy-6-methylpyrimidine-4-carbonyl)piperazin-1-yl]-2-(6-methoxypyridin-3-yl)-7-oxo-4H,7H-[1,2,4]triazolo[1,5-a]pyrimidin-4-yl}acetamide] gave an IC50 of 0.005 to 0.05 µM.

The compound `CCc1c(N2CCN(C(=O)c3cnn(C)c3)CC2)c(=O)n2nc(C3=CCOCC3)nc2n1CC(=O)Nc1ccc(C(F)(F)F)cc1Cl` [Compound I-23, N-[2-chloro-4-(trifluoromethyl)phenyl]-2-[2-(3,6-dihydro-2H-pyran-4-yl)-5-ethyl-6-[4-(1-methyl-1H-pyrazole-4-carbonyl)piperazin-1-yl]-7-oxo-4H,7H-[1,2,4]triazolo[1,5-a]pyrimidin-4-yl]acetamide] displayed an IC50 of 0.005 to 0.05 µM.

`CCc1c(N2CCN(C(=O)CCO)CC2)c(=O)n2nc(C3=CCOCC3)nc2n1CC(=O)Nc1ccc(C(F)(F)F)cc1Cl` [Compound I-24, N-[2-chloro-4-(trifluoromethyl)phenyl]-2-[2-(3,6-dihydro-2H-pyran-4-yl)-5-ethyl-6-[4-(3-hydroxypropanoyl)piperazin-1-yl]-7-oxo-4H,7H-[1,2,4]triazolo[1,5-a]pyrimidin-4-yl]acetamide] displayed a 50% inhibitory concentration (IC50) of 0.005 to 0.05 µM.

Regarding `CCc1c(N2CCN(C(=O)CC#N)CC2)c(=O)n2nc(C3=CCOCC3)nc2n1CC(=O)Nc1ccc(C(F)(F)F)cc1Cl` [Compound I-25, N-[2-chloro-4-(trifluoromethyl)phenyl]-2-{6-[4-(2-cyanoacetyl)piperazin-1-yl]-2-(3,6-dihydro-2H-pyran-4-yl)-5-ethyl-7-oxo-4H,7H-[1,2,4]triazolo[1,5-a]pyrimidin-4-yl}acetamide], the 50% inhibitory concentration (IC50) lay in the range of 0.005 to 0.05 µM.

Regarding `CCc1c(N2CCN(C(=O)c3cnn(C)c3O)CC2)c(=O)n2nc(C3=CCOCC3)nc2n1CC(=O)Nc1ccc(C(F)(F)F)cc1Cl` [Compound I-26, N-[2-chloro-4-(trifluoromethyl)phenyl]-2-[2-(3,6-dihydro-2H-pyran-4-yl)-5-ethyl-6-[4-(5-hydroxy-1-methyl-1H-pyrazole-4-carbonyl)piperazin-1-yl]-7-oxo-4H,7H-[1,2,4]triazolo[1,5-a]pyrimidin-4-yl]acetamide], the IC50 lay in the range of 0.005 to 0.05 µM.

The compound `CCc1c(N2CCN(C(=O)c3nsnc3O)CC2)c(=O)n2nc(C3=CCOCC3)nc2n1CC(=O)Nc1ccc(C(F)(F)F)cc1Cl` [Compound I-27, N-[2-chloro-4-(trifluoromethyl)phenyl]-2-[2-(3,6-dihydro-2H-pyran-4-yl)-5-ethyl-6-[4-(4-hydroxy-1,2,5-thiadiazole-3-carbonyl)piperazin-1-yl]-7-oxo-4H,7H-[1,2,4]triazolo[1,5-a]pyrimidin-4-yl]acetamide] returned an IC50 of 0.005 to 0.05 µM.

Compound `CCc1c(N2CCN(C(=O)c3c(O)noc3C)CC2)c(=O)n2nc(C3=CCOCC3)nc2n1CC(=O)Nc1ccc(C(F)(F)F)cc1Cl` [Compound I-28, N-[2-chloro-4-(trifluoromethyl)phenyl]-2-[2-(3,6-dihydro-2H-pyran-4-yl)-5-ethyl-6-[4-(3-hydroxy-5-methyl-1,2-oxazole-4-carbonyl)piperazin-1-yl]-7-oxo-4H,7H-[1,2,4]triazolo[1,5-a]pyrimidin-4-yl]acetamide] came in with a 50% inhibitory concentration (IC50) of less than 0.005 µM.

For `CCc1c(N2CCN(C(=O)c3nocc3O)CC2)c(=O)n2nc(C3=CCOCC3)nc2n1CC(=O)Nc1ccc(C(F)(F)F)cc1Cl` [Compound I-29, N-[2-chloro-4-(trifluoromethyl)phenyl]-2-[2-(3,6-dihydro-2H-pyran-4-yl)-5-ethyl-6-[4-(4-hydroxy-1,2-oxazole-3-carbonyl)piperazin-1-yl]-7-oxo-4H,7H-[1,2,4]triazolo[1,5-a]pyrimidin-4-yl]acetamide], the IC50 is less than 0.005 µM.

As to `CCc1c(N2CCN(C(=O)c3ccn(C)n3)CC2)c(=O)n2nc(C3=CCOCC3)nc2n1CC(=O)Nc1ccc(C(F)(F)F)cc1Cl` [Compound I-30, N-[2-chloro-4-(trifluoromethyl)phenyl]-2-[2-(3,6-dihydro-2H-pyran-4-yl)-5-ethyl-6-[4-(1-methyl-1H-pyrazole-3-carbonyl)piperazin-1-yl]-7-oxo-4H,7H-[1,2,4]triazolo[1,5-a]pyrimidin-4-yl]acetamide], the half-inhibitory concentration (IC50) lay within 0.005 to 0.05 µM.

In turn, `CCc1c(N2CCN(C(=O)C(C)(C)C#N)CC2)c(=O)n2nc(C3=CCOCC3)nc2n1CC(=O)Nc1ccc(C(F)(F)F)cc1Cl` [Compound I-31, N-[2-chloro-4-(trifluoromethyl)phenyl]-2-{6-[4-(2-cyano-2,2-dimethylacetyl)piperazin-1-yl]-2-(3,6-dihydro-2H-pyran-4-yl)-5-ethyl-7-oxo-4H,7H-[1,2,4]triazolo[1,5-a]pyrimidin-4-yl}acetamide] returned an IC50 of 0.05 to 0.1 µM.

The compound `CCc1c(N2CCN(C(=O)c3ncnc(C)c3O)CC2)c(=O)n2nc(-c3cnn(C4CC4)c3)nc2n1CC(=O)Nc1ccc(C(F)(F)F)cc1Cl` [Compound I-32, N-[2-chloro-4-(trifluoromethyl)phenyl]-2-[2-(1-cyclopropyl-1H-pyrazol-4-yl)-5-ethyl-6-[4-(5-hydroxy-6-methylpyrimidine-4-carbonyl)piperazin-1-yl]-7-oxo-4H,7H-[1,2,4]triazolo[1,5-a]pyrimidin-4-yl]acetamide] gave a half-inhibitory concentration (IC50) of 0.005 to 0.05 µM.

Regarding `CCc1c(N2CCN(C(=O)c3ncnc(C)c3O)CC2)c(=O)n2nc(-c3ccn(C4CC4)n3)nc2n1CC(=O)Nc1ccc(C(F)(F)F)cc1Cl` [Compound I-33, N-[2-chloro-4-(trifluoromethyl)phenyl]-2-[2-(1-cyclopropyl-1H-pyrazol-3-yl)-5-ethyl-6-[4-(5-hydroxy-6-methylpyrimidine-4-carbonyl)piperazin-1-yl]-7-oxo-4H,7H-[1,2,4]triazolo[1,5-a]pyrimidin-4-yl]acetamide], the IC50 is 0.005 to 0.05 µM.

The record behind these values is US20260356840A1, “[1,2,4]TRIAZOLO[1,5-A]PYRIMIDINONE WRN INHIBITORS” (Nimbus Wadjet, Inc., priority 2023, published 2026).
